Laboratory results from patent publication US12508233B2, “Graft copolymers, methods of forming graft copolymers, and methods of use thereof” (Vanderbilt University, priority 2018, dated 2025).

System: THP-1 ISG reporter cells
Test: THP-1 ISG reporter cell assay in the context of cGAMP delivery
Assay type: cell-based
Conditions: free cGAMP, dashed line in FIG. 10C; read-out: Half-maximal response of cGAMP
Description: The graft copolymers disclosed herein were next tested for bioactivity and drug delivery properties. As illustrated in FIGS. 9A-B, hemolysis, a measure of endosomolytic activity, increases with increasing MW and decreases with increasing hydrophilic weight fraction. Turning to FIGS. 10A-D, THP-1 ISG reporter cells were used to determine cellular uptake and cGAMP delivery.

SMILES: Nc1nc2c(ncn2[C@@H]2O[C@@H]3COP(=O)(O)O[C@H]4[C@@H](O)[C@H](n5cnc6c(N)ncnc65)O[C@@H]4COP(=O)(O)O[C@@H]2[C@@H]3O)c(=O)[nH]1 [cGAMP]
- EC50: 40 µM
